Data taken from patent US20070128303A1, “Anti-inflammatory, cytoprotective factor derivable from a probiotic organism” (THE UNIVERSITY OF CHICAGO, priority 2004, published 2007).
Starred links: 1 amine or outer side, 2 acyl side, 3 side chain; linkers in the order of their positions; H or OH if unused. Positions of bridges follow the written chain, without caps; N, C: chain ends. Non-standard residues stand in square brackets, D forms with d. Residues, ends and D or L forms follow the SMILES beside them. *: point of attachment. Trp(2-yl) = O=C([C@H](Cc1c([*:3])[nH]c2ccccc12)N[*:1])[*:2]; Leu(4R-OH,5-OH) = C[C@](O)(CO)C[C@H](N)C(=O)O; cisHyp = O=C(O)[C@@H]1C[C@H](O)CN1; Cbz = O=C(OCc1ccccc1)*

Columns and labels:
[1] = target: T1, PGPH, or caspase-like, activity of the proteasome (Mus musculus, UniProt Q60692); test: Proteasome assay on YAMC cell lysates, substrate Z-leu-leu-glu-AMC; type: cell-based; conditions: VSL#3-CM 16 hours, about equivalent to 10 μM lactacystin; lactacystin 10 μM
T1 construct: endogenous in cells; host or cells: YAMC cell lysates
T1 sequence (Q60692 1-238): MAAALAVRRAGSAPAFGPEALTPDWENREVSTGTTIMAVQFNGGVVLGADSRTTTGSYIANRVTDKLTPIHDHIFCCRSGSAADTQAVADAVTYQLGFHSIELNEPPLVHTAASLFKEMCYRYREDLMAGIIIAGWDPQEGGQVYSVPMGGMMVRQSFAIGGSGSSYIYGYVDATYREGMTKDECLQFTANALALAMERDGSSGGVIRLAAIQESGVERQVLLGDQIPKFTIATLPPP

[2] = target: T2, trypsin-like activity of the proteasome (Mus musculus, UniProt P70195); test: Proteasome assay on YAMC cell lysates, substrate Bz-val-gly-arg-AMC; type: cell-based; conditions: VSL#3-CM 16 hours; lactacystin 10 μM
T2 construct: endogenous in cells; host or cells: YAMC cell lysates
T2 sequence (P70195 44-277): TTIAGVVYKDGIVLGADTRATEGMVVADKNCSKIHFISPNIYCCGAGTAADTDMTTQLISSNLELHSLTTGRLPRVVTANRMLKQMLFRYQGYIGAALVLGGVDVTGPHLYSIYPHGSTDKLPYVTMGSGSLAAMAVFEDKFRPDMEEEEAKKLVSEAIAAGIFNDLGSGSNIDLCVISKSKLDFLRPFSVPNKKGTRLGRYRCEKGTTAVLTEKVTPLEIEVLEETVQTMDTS

Hsp25 and Hsp72 = test: Immunoblot of Hsp25 and Hsp72 expression in YAMC cells; type: cell-based, mouse
Experimental: Twenty micrograms of protein per lane were resolved on 12.5% SDS-PAGE and transferred in 1× Towbin buffer (composition 25 mM Tris, 192 mM glycine, pH 8.8, 15% vol/vol methanol) onto PVDF membranes (Polyscreen, Perkin-Elmer NEN, Boston, Mass.) as previously described (Kojima, 2003), incorporated herein by reference. Membranes were blocked in 5% (wt/vol) non-fat milk in TBS-Tween (Tris-buffered saline (150 mM NaCl, 5 mM KCl, 10 mM Tris, pH 7.4) with 0.05% (vol/vol) Tween 20) for one hour at room temperature. For anti-ubiquitin blots, membranes were blocked in 3% bovine serum albumin (Fisher, Pittsburgh, Pa.). Primary antibody was added to TBS-Tween and incubated overnight at 4° C. with a specific anti-Hsp 25 antibody (SPA 801, Stressgen, Victoria, BC, Canada), anti-Hsp 72 antibody (SPA 810, Stressgen), anti-Hsc 73 antibody (SPA 815, Stressgen), anti-IκB-α antibody (sc-1643, Santa Cruz Biotechnology, Santa Cruz, Calif.), anti-phospho IκB-α antibody (sc-8404, Santa Cruz), or anti-ubiquitin antibody (PW 8810, Affiniti Research Products Ltd, Exeter, U.K.). Blots were then washed in TBS-Tween five times for 10 minutes each at room temperature before incubation with peroxidase-conjugated secondary antibodies (Jackson Immunoresearch Labs, Inc. Fort Washington, Pa.) for 1 hour at room temperature. […]

[3] = target: T3, 20S proteasomal component (barrel) (Homo sapiens, UniProt P28074); test: In vitro 20S proteasome assay (Calbiochem); type: biochemical; conditions: 20S component, slopes compared
T3 construct: purchased Calbiochem
Experimental: Proteasome activity from cell lysates was determined using a 20S Proteasome assay kit (Calbiochem, San Diego, Calif.). Briefly, ice-cold cell lysate containing 20 μg protein was added to proteasome assay reaction buffer (25 mm HEPES, 0.5 mM EDTA, pH 7.6) activated with 0.03% (wt/vol) SDS. The sample was allowed to come to room temperature, then placed in a quartz cuvette and 10 μM of the substrate suc-leu-leu-val-tyr-AMC (SLLVY-AMC), Bz-val-gly-arg-AMC, or Z-leu-leu-glu-AMC was added. The SLLVY-AMC substrate is cleaved by the chymotrypsin-like activity of the proteasome, the Bz-val-gly-arg-AMC substrate is cleaved by the trypsin-like activity of the proteasome, and the Z-leu-leu-glu-AMC substrate is cleaved by the PGPH, or caspase-like, activity of the proteasome. Proteasome activity was determined by measuring the fluorogenic signal generated by cleavage of AMC (7-amino-4-methylcoumarin) from the peptide moiety of the proteasome substrate. Fluorescence (excitation at 380 nm, emission at 460 nm) was measured every minute for the first 10 minutes, then every 15 minutes thereafter in a Hitachi F-2000 fluorometer (Hitachi, Japan). Cells were treated with either MG132 (25 μM) or lactacystin (10 μM) as a positive inhibitor control. Untreated cells were treated with DMSO as a vehicle control for MG132 and lactacystin. Experiments were performed in triplicate. […]

NF-κB = NF-κB ELISA assay (Active Motif), TNF-α stimulation; type: cell-based; conditions: TNF-α 30 ng/ml
Experimental: The proteasome inhibitors in VSL#3 may be small organic molecules. Some proteasome inhibitors found in nature are small molecular weight organic esters or organic acid derivatives, such as those in green tea. An ether extraction of the VSL#3-CM was undertaken to determine if bioactive factors could be concentrated to produce a more consistent and robust response. […] TNF-α stimulation (30 ng/ml) alone caused a significant increase in NF-κB activation (second bar from left).

F/G actin = F/G actin assay, YAMC cells under oxidant stress; type: cell-based, mouse; conditions: phalloidin 30 μg/ml 2 hours; cytochalasin D 10 μg/ml 15 min
Experimental: F/G actin assays were conducted by initially shifting confluent YAMC cell monolayers to 37° C. in IFN-γ-free medium and treating with VSL#3-CM overnight. Prior to assessment, cells were treated with phalloidin (30 μg/ml for 2 hours; Molecular probes, Eugene, Oreg.), cytochalasin D (10 μg/ml for 15 min), or the oxidant monochloramine (0.6 mM for 30 minutes). Cells were rinsed in PBS, harvested, centrifuged (14,000×g for 20 seconds at room temperature) and the pellets resuspended in 200 μl of 30° C. lysis buffer (1 mM ATP, 50 mM PIPES, pH 6.9, 50 mM NaCl, 5 mM MgCl2, 5 mM EGTA, 5% (vol/vol) glycerol, 0.1% (vol/vol) Nonidet P-40, Tween 20, and Triton X-100, containing complete protease inhibitor cocktail). Cells were homogenized by gently pipetting up and down ten times and incubated at 30° C. for 10 minutes. Samples were centrifuged at 100,000×g for 60 minutes at 30° C. and the supernatants were removed for determination of G actin content. Pellets containing F-actin were resuspended in 200 μl of 4° C. distilled water with 1 μM cytochalasin D and left on ice for 60 minutes. Then, 20 μl of each extraction was removed, 6 μl 3× Laemmli stop solution was added and the samples were heated to 65° C. for 10 minutes. Samples were resolved by 12.5% SDS-PAGE and immediately transferred to PVDF membranes. […]

CC(=O)N[C@@H](CSC(=O)[C@]1([C@@H](O)C(C)C)NC(=O)[C@H](C)[C@@H]1O)C(=O)O [Lactacystin] was tested, and the “effect on caspase-like activity of the proteasome” value [1] was “only a weak inhibitor”, the “effect on trypsin-like activity of the proteasome” value [2] was “inhibits” and the “cell toxicity limiting usable concentration” value (YAMC cells; concentrations higher than 10 μM) was “limited due to cell toxicity”.
CC(C)C[C@@H](C=O)NC(=O)[C@H](CC(C)C)NC(=O)[C@H](CC(C)C)NC(=O)OCc1ccccc1 [MG132] (Cbz-Leu-Leu-Leu-aldehyde) was tested, and the “change in morphology and loss of cell viability” value (YAMC cells; 16 hours, MG132 at 25 μM, phase-contrast photographs) was “dramatic change in morphology and loss of cell viability”, the “cell viability compared to untreated control cells” value (YAMC cells; VSL#3-CM 24 hours of treatment, MG132 prolonged exposure) was “markedly increased cell death” and the “appearance of Hsp signal” value (Hsp25 and Hsp72; MG132 25 μM time course) was 7 to 14 h. The “induction of Hsp25 and Hsp72” value (Hsp25 and Hsp72; MG132 25 μM, more robust than thermal stress) was “very strong induction”, the “effect on in vitro proteasomal activity” value [3] was “significant inhibition” and the “effect on TNF-α-stimulated NF-κB activity” value (NF-κB) was “significantly inhibited”.
C=C1[C@@H](C)[C@H]2[C@H](Cc3ccccc3)NC(=O)[C@]23[C@H](OC(C)=O)/C=C/[C@@](C)(O)C(=O)[C@@H](C)C/C=C/[C@H]3[C@@H]1O [cytochalasin D] was tested, and the “effect on F- and G-actin, control agents” value (F/G actin) was “greatly increases the amount of globular (G) actin”.
C[C@@H]1NC(=O)[C@H](C[C@@](C)(O)CO)NC(=O)[C@@H]2Cc3c([nH]c4ccccc34)SC[C@H](NC(=O)[C@@H]([C@H](C)O)NC1=O)C(=O)N1C[C@@H](O)C[C@H]1C(=O)N[C@@H](C)C(=O)N2 [phalloidin] (cyclo(A[dT]C[cisHyp]A[Trp(2-yl)][Leu(4R-OH,5-OH)]); thioether 3-6) was tested, and the “effect on F- and G-actin, control agents” value (F/G actin) was “increasing the amount of F-actin”.
